Counter-ions that a name gives are not always drawn.
Columns and labels:
Details in all cases: incubation time: 27 h, anaerobic, 37 °C
Escherichia coli IAI1 [1] = assay: fold change of Cadaverine concentration vs plate DMSO controls (fold change (ratio)); higher = more amine produced
Escherichia coli IAI1 [2] = assay: fold change of Putrescine concentration vs plate DMSO controls (fold change (ratio)); higher = more amine produced
Escherichia coli IAI1 [3] = assay: growth (OD595) fold change vs plate DMSO controls (fold change (ratio)); higher = more growth
[4] = test system: Clostridium sporogenes DSM 1664; assay: fold change of Tryptamine concentration vs plate DMSO controls (fold change (ratio)); higher = more amine produced
[5] = test system: Clostridium sporogenes DSM 1664; assay: growth (OD595) fold change vs plate DMSO controls (fold change (ratio)); higher = more growth
[6] = test system: Ruminococcus gnavus DSM 108212; assay: fold change of Tryptamine concentration vs plate DMSO controls (fold change (ratio)); higher = more amine produced
[7] = test system: Ruminococcus gnavus DSM 108212; assay: fold change of 2-Phenylethylamine concentration vs plate DMSO controls (fold change (ratio)); higher = more amine produced
[8] = test system: Ruminococcus gnavus DSM 108212; assay: growth (OD595) fold change vs plate DMSO controls (fold change (ratio)); higher = more growth
[9] = test system: Klebsiella aerogenes DSM 30053; assay: fold change of Cadaverine concentration vs plate DMSO controls (fold change (ratio)); higher = more amine produced
[10] = test system: Klebsiella aerogenes DSM 30053; assay: fold change of Histamine concentration vs plate DMSO controls (fold change (ratio)); higher = more amine produced
Description: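 Dose-response follow-up: bacteria (E. coli IAI1, K. aerogenes DSM 30053, C. sporogenes DSM 1664, R. gnavus DSM 108212) were grown anaerobically in mGAM at 37 °C for 27 h with compound at 0.6125-20 µM. Amines were measured in the whole culture by targeted LC-MS/MS. Metabolite fold change and OD595 fold change are relative to plate DMSO controls; n=2 biological replicates. OD fold changes are not clipped, so slightly negative values mean no growth.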

[11] = test system: Klebsiella aerogenes DSM 30053; assay: fold change of Putrescine concentration vs plate DMSO controls (fold change (ratio)); higher = more amine produced
[12] = test system: Klebsiella aerogenes DSM 30053; assay: growth (OD595) fold change vs plate DMSO controls (fold change (ratio)); higher = more growth

C=CC1=C(C(=O)O)N2C(=O)[C@@H](NC(=O)/C(=N\O)c3csc(N)n3)[C@H]2SC1 [Cefdinir]
Details	fold change of Cadaverine concentration, Escherichia coli IAI1 [1]	fold change of Putrescine concentration, Escherichia coli IAI1 [2]	growth, Escherichia coli IAI1 [3]
0.6125 µM	1.1	0.759	0.899
1.25 µM	1.18	0.836	0.905
2.5 µM	1.98	1.47	0.0538
5 µM	0.812	0.282	-0.042
10 µM	0.533	0.152	-0.0507
20 µM	1.17	0.342	-0.0475

C=CC1=C(C(=O)O)N2C(=O)[C@@H](NC(=O)/C(=N\OCC(=O)O)c3csc(N)n3)[C@H]2SC1 [Cefixime]
Details	fold change of Cadaverine concentration, Escherichia coli IAI1 [1]	fold change of Putrescine concentration, Escherichia coli IAI1 [2]	fold change of Tryptamine concentration, [4]	growth, Escherichia coli IAI1 [3]	growth, [5]
0.6125 µM	1.07	0.815	0.977	0.848	1.05
1.25 µM	1.07	0.897	0.994	0.903	1.02
2.5 µM	1.72	0.839	0.974	0.859	0.842
5 µM	2.01	2.82	0.937	0.193	0.82
10 µM	2.2	1.37	0.925	0.0344	0.675
20 µM	2.17	1.16	0.887	-0.00514	0.527

CCN1CCN(C(=O)N[C@@H](C(=O)N[C@@H]2C(=O)N3C(C(=O)O)=C(CSc4nnnn4C)CS[C@H]23)c2ccc(O)cc2)C(=O)C1=O [Cefoperazone dihydrate]
Details	fold change of 2-Phenylethylamine concentration, [7]	fold change of Cadaverine concentration, Escherichia coli IAI1 [1]	fold change of Putrescine concentration, Escherichia coli IAI1 [2]	fold change of Tryptamine concentration, [6]	growth, Escherichia coli IAI1 [3]	growth, [8]
0.6125 µM	0.866	1.07	0.765	1.01	0.9	1.55
1.25 µM	0.808	1.12	0.851	0.955	0.914	1.15
2.5 µM	0.387	1.82	3.2	0.568	0.514	0.937
5 µM	0.153	2.14	1.77	0.22	0.0751	0.627
10 µM	0.105	2.27	1.11	0.14	0.0151	0.478
20 µM	0.0986	2.17	1.04	0.124	-0.0235	0.345

CO/N=C(\C(=O)N[C@@H]1C(=O)N2C(C(=O)[O-])=C(C[n+]3ccn4ncccc43)CS[C@H]12)c1nsc(N)n1 [Cefozopran hydrochloride]
Details	fold change of 2-Phenylethylamine concentration, [7]	fold change of Cadaverine concentration, Escherichia coli IAI1 [1]	fold change of Putrescine concentration, Escherichia coli IAI1 [2]	fold change of Tryptamine concentration, [6]	growth, Escherichia coli IAI1 [3]	growth, [8]
0.6125 µM	0.623	0.986	0.772	0.714	0.818	1.24
1.25 µM	0.361	0.959	0.919	0.52	0.863	0.965
2.5 µM	0.162	0.929	0.717	0.275	1.06	1.03
5 µM	0.105	0.962	0.793	0.16	1.12	1.06
10 µM	0.101	1.38	1.12	0.148	1.15	1.24
20 µM	0.0948	2.16	2.17	0.135	0.238	0.529

CO/N=C(\C(=O)N[C@@H]1C(=O)N2C(C(=O)O)=C(COC(N)=O)CS[C@H]12)c1ccco1 [Cefuroxime sodium salt]
Details	fold change of Cadaverine concentration, Escherichia coli IAI1 [1]	fold change of Putrescine concentration, Escherichia coli IAI1 [2]	fold change of Tryptamine concentration, [4]	growth, Escherichia coli IAI1 [3]	growth, [5]
0.6125 µM	1.11	0.907	1.01	0.872	0.8
1.25 µM	1.13	0.853	1.01	0.929	0.69
2.5 µM	1.09	0.758	1.04	1.03	0.755
5 µM	2.02	1.11	0.764	0.923	0.214
10 µM	2.06	2.59	0.0406	0.171	-0.0277
20 µM	2.13	1.24	0.0242	0.0264	-0.0443

COc1c(N2CCNC(C)C2)c(F)cc2c(=O)c(C(=O)O)cn(C3CC3)c12 (stereo not given) [Gatifloxacin]
Details	fold change of 2-Phenylethylamine concentration, [7]	fold change of Cadaverine concentration, [9]	fold change of Histamine concentration, [10]	fold change of Putrescine concentration, [11]	fold change of Tryptamine concentration, [6]	growth, [8]	growth, [12]
0.6125 µM	1.35	0.983	1.35	1.03	1.31	0.932	0.993
1.25 µM	1.33	1.03	0.852	1.2	1.5	0.65	0.605
2.5 µM	1.67	1.02	0.158	1.26	2.2	0.553	0.302
5 µM	2.18	0.999	0.193	1.35	2.87	0.484	0.348
10 µM	1.22	1	0.284	1.4	1.85	0.3	0.373
20 µM	0.23	0.997	0.4	1.24	0.434	0.107	0.242

CC(=O)NC[C@H]1CN(c2ccc(N3CCOCC3)c(F)c2)C(=O)O1 [Linezolid]
Details	fold change of Tryptamine concentration, [4]	growth, [5]
0.6125 µM	0.966	1.14
1.25 µM	0.923	1.05
2.5 µM	0.894	1.06
5 µM	0.77	0.814
10 µM	0.51	0.563
20 µM	0.0345	-0.0339

COc1cccc(OC)c1C(=O)N[C@@H]1C(=O)N2[C@@H]1SC(C)(C)[C@@H]2C(=O)O [Methicillin sodium]
Details	fold change of Tryptamine concentration, [4]	growth, [5]
0.6125 µM	1.02	0.843
1.25 µM	1	0.888
2.5 µM	1.01	0.839
5 µM	0.915	0.95
10 µM	0.779	0.469
20 µM	0.417	0.469

Cc1ncc([N+](=O)[O-])n1CCO [Metronidazole]
Details	fold change of Tryptamine concentration, [4]	growth, [5]
0.6125 µM	0.744	1.05
1.25 µM	0.758	1.12
2.5 µM	0.55	1.08
5 µM	0.0225	-0.0178
10 µM	0.0206	-0.0224
20 µM	0.0183	-0.023

CO[C@@]12[C@H](COC(N)=O)C3=C(C(=O)C(C)=C(N)C3=O)N1C[C@@H]1N[C@@H]12 [Mitomycin C]
Details	fold change of Cadaverine concentration, Escherichia coli IAI1 [1]	fold change of Putrescine concentration, Escherichia coli IAI1 [2]	growth, Escherichia coli IAI1 [3]
0.6125 µM	1.42	0.929	0.872
1.25 µM	1.59	1.35	0.904
2.5 µM	1.98	1.27	0.925
5 µM	1.94	1.13	1.05
10 µM	1.25	0.82	0.764
20 µM	0.41	0.673	-0.0235

CC[C@@]1([C@@H]2O[C@@H]([C@H]3O[C@@](O)(CO)[C@H](C)C[C@@H]3C)C[C@@H]2C)CC[C@H]([C@]2(C)CC[C@]3(C[C@H](O)[C@@H](C)[C@@H]([C@@H](C)[C@@H](OC)[C@H](C)C(=O)O)O3)O2)O1 [Monensin sodium salt]
Details	fold change of Tryptamine concentration, [4]	growth, [5]
0.6125 µM	0.986	0.907
1.25 µM	0.919	0.829
2.5 µM	0.785	0.712
5 µM	0.555	0.829
10 µM	0.39	0.664
20 µM	0.267	0.516

CCn1cc(C(=O)O)c(=O)c2cc3c(cc21)OCO3 [Oxolinic acid]
Details	fold change of Tryptamine concentration, [4]	growth, [5]
0.6125 µM	0.975	1.04
1.25 µM	1.03	0.931
2.5 µM	1.13	1.05
5 µM	0.788	0.775
10 µM	0.446	0.806
20 µM	0.0475	-0.028

CN(C)[C@@H]1C(=O)C(C(N)=O)=C(O)[C@@]2(O)C(=O)C3=C(O)c4c(O)cccc4[C@@](C)(O)[C@H]3[C@H](O)[C@@H]12 [Oxytetracycline dihydrate]
Details	fold change of 2-Phenylethylamine concentration, [7]	fold change of Tryptamine concentration, [6]	growth, [8]
0.6125 µM	0.956	1.13	0.833
1.25 µM	1.13	1.31	0.83
2.5 µM	1.34	1.69	0.68
5 µM	2.06	2.71	0.594
10 µM	2.02	2.8	0.414
20 µM	2.08	2.82	0.356

CC(C)(c1cc(Br)c(O)c(Br)c1)c1cc(Br)c(O)c(Br)c1 [TBBPA]
Details	fold change of Tryptamine concentration, [4]	growth, [5]
0.6125 µM	1.18	1.09
1.25 µM	1.18	1.16
2.5 µM	1.18	1.25
5 µM	1.27	1.25
10 µM	0.379	0.452
20 µM	0.0168	-0.0298

CS(=O)(=O)c1ccc([C@@H](O)[C@@H](CO)NC(=O)C(Cl)Cl)cc1 [Thiamphenicol]
Details	fold change of 2-Phenylethylamine concentration, [7]	fold change of Tryptamine concentration, [6]	growth, [8]
0.6125 µM	1.16	1.04	0.84
1.25 µM	1.23	0.877	0.789
2.5 µM	0.61	0.535	0.797
5 µM	0.471	0.443	0.686
10 µM	0.3	0.342	0.57
20 µM	0.329	0.267	0.38

CO[C@H]1C[C@H](O[C@H]2[C@H](C)[C@@H](O[C@@H]3O[C@H](C)C[C@H](N(C)C)[C@H]3OC(C)=O)[C@@H](C)C[C@@]3(CO3)C(=O)[C@H](C)[C@@H](OC(C)=O)[C@@H](C)[C@@H](C)OC(=O)[C@@H]2C)O[C@@H](C)[C@@H]1OC(C)=O [Troleandomycin]
Details	fold change of Tryptamine concentration, [4]	growth, [5]
0.6125 µM	1.07	1.05
1.25 µM	1.17	1.01
2.5 µM	1.21	0.886
5 µM	1.21	0.87
10 µM	0.983	0.89
20 µM	0.344	0.236

— the supplement of paper PMC12494721
